Literature values as cited in US10485783B1, “Methods and compositions for reducing or eliminating symptoms of withdrawal from drugs and alcohol” (Longevity Healthcare Center, priority 2018, dated 2019).

Assays:
[1] = tested on: GABAA and GABAB receptors; settings: synergistic with a GABAA receptor agonist, blocked by a GABAB receptor agonist
[2] = in vitro
[3] = tested on: rats self-administering morphine; settings: morphine 2 hours per day on 10 consecutive days, then ascorbic acid intraperitoneally

Compound | anti-depressive activity [1] | concentration at which ascorbic acid generates free radicals (pro-oxidant) [2] | level of morphine self-administration (number of lever pressings) and number and intensity of withdrawal symptoms [3]
O=C1O[C@H]([C@@H](O)CO)C(O)=C1O [ascorbic acid] | anti-depressive activity | 3 to 5 mM | decrease
CNC1(c2ccccc2Cl)CCCCC1=O (stereo not shown) [Ketamine] | anti-depressive activity | – | –
